Reference: PubChem BioAssay (NCI)
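Five concentrations, 48 hours, 96-well plates. At the GI50, growth is halved. TGI is the concentration that stops growth completely.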

Tests used:
Test in all cases: DTP human tumour cell line panel, 48 h
UACC-257 melanoma = system: UACC-257 melanoma
HOP-92 NSCLC = system: HOP-92 NSCLC
NCI-H460 lung = system: NCI-H460 lung
SW-620 colon = system: SW-620 colon
SF-268 CNS = system: SF-268 CNS
OVCAR-3 ovarian = system: OVCAR-3 ovarian
UO-31 renal = system: UO-31 renal
HS 578T breast = system: HS 578T breast
HT29 colon = system: HT29 colon
IGROV1 ovarian = system: IGROV1 ovarian
BT-549 breast = system: BT-549 breast
SR leukemia = system: SR leukemia
SNB-19 CNS = system: SNB-19 CNS
KM12 colon = system: KM12 colon
T-47D breast = system: T-47D breast
HCT-15 colon = system: HCT-15 colon
MDA-MB-435 = system: MDA-MB-435
OVCAR-4 ovarian = system: OVCAR-4 ovarian
MALME-3M melanoma = system: MALME-3M melanoma
M14 melanoma = system: M14 melanoma
MCF7 breast = system: MCF7 breast
OVCAR-5 ovarian = system: OVCAR-5 ovarian
SF-295 CNS = system: SF-295 CNS
NCI/ADR-RES ovarian = system: NCI/ADR-RES ovarian
A549 NSCLC = system: A549 NSCLC
CCRF-CEM leukemia = system: CCRF-CEM leukemia
UACC-62 melanoma = system: UACC-62 melanoma
TK-10 renal = system: TK-10 renal
ACHN renal = system: ACHN renal
RXF 393 renal = system: RXF 393 renal
786-0 renal = system: 786-0 renal
MDA-MB-231 breast = system: MDA-MB-231 breast
K-562 leukemia = system: K-562 leukemia
SK-MEL-28 melanoma = system: SK-MEL-28 melanoma
PC-3 prostate = system: PC-3 prostate
NCI-H522 lung = system: NCI-H522 lung
CAKI-1 renal = system: CAKI-1 renal
MOLT-4 leukemia = system: MOLT-4 leukemia
HOP-62 NSCLC = system: HOP-62 NSCLC
SF-539 CNS = system: SF-539 CNS
U251 CNS = system: U251 CNS
NCI-H23 lung = system: NCI-H23 lung
COLO 205 colon = system: COLO 205 colon
SK-MEL-2 melanoma = system: SK-MEL-2 melanoma
SN12C renal = system: SN12C renal
LOX IMVI melanoma = system: LOX IMVI melanoma
RPMI-8226 leukemia = system: RPMI-8226 leukemia
NCI-H226 lung = system: NCI-H226 lung
HCT-116 colon = system: HCT-116 colon
EKVX NSCLC = system: EKVX NSCLC
DU-145 prostate = system: DU-145 prostate
A498 renal = system: A498 renal
SK-MEL-5 melanoma = system: SK-MEL-5 melanoma
OVCAR-8 ovarian = system: OVCAR-8 ovarian
SNB-75 CNS = system: SNB-75 CNS

SMILES: COc1cc2c(/C=C3\C(=O)N(C)c4ccc(O)cc43)c[nH]c2cc1C
- GI50 (UACC-257 melanoma): 2.54 µM
- TGI (UACC-257 melanoma): 7.01 µM
- GI50 (HOP-92 NSCLC): 14.3 µM
- TGI (HOP-92 NSCLC): 34.3 µM
- GI50 (NCI-H460 lung): 2.62 µM
- TGI (NCI-H460 lung): 7.79 µM
- GI50 (SW-620 colon): 3.83 µM
- TGI (SW-620 colon): 34 µM
- GI50 (SF-268 CNS): 5.29 µM
- TGI (SF-268 CNS): 46.4 µM
- GI50 (OVCAR-3 ovarian): 3.86 µM
- TGI (OVCAR-3 ovarian): 22.6 µM
- GI50 (UO-31 renal): 3.07 µM
- TGI (UO-31 renal): 12.6 µM
- GI50 (HS 578T breast): 4.33 µM
- TGI (HS 578T breast): > 100 µM
- GI50 (HT29 colon): 3.67 µM
- TGI (HT29 colon): > 100 µM
- GI50 (IGROV1 ovarian): 3.7 µM
- TGI (IGROV1 ovarian): 22.3 µM
- GI50 (BT-549 breast): 1.86 µM
- TGI (BT-549 breast): 5.44 µM
- GI50 (SR leukemia): 2.88 µM
- TGI (SR leukemia): > 100 µM
- GI50 (SNB-19 CNS): 6.16 µM
- TGI (SNB-19 CNS): 52.9 µM
- GI50 (KM12 colon): 0.854 µM
- TGI (KM12 colon): 3.52 µM
- GI50 (T-47D breast): 4.05 µM
- TGI (T-47D breast): 39.7 µM
- GI50 (HCT-15 colon): 4.75 µM
- TGI (HCT-15 colon): 67.8 µM
- GI50 (MDA-MB-435): 0.373 µM
- TGI (MDA-MB-435): 1.5 µM
- GI50 (OVCAR-4 ovarian): 5.3 µM
- TGI (OVCAR-4 ovarian): > 100 µM
- GI50 (MALME-3M melanoma): 2.44 µM
- TGI (MALME-3M melanoma): 7.08 µM
- GI50 (M14 melanoma): 2.9 µM
- TGI (M14 melanoma): 8.4 µM
- GI50 (MCF7 breast): 2.28 µM
- TGI (MCF7 breast): 7.35 µM
- GI50 (OVCAR-5 ovarian): 22 µM
- TGI (OVCAR-5 ovarian): 42.5 µM
- GI50 (SF-295 CNS): 2.64 µM
- TGI (SF-295 CNS): 17.3 µM
- GI50 (NCI/ADR-RES ovarian): 4.17 µM
- TGI (NCI/ADR-RES ovarian): 25.9 µM
- GI50 (A549 NSCLC): 3.05 µM
- TGI (A549 NSCLC): 18.1 µM
- GI50 (CCRF-CEM leukemia): 3.35 µM
- TGI (CCRF-CEM leukemia): 35.9 µM
- GI50 (UACC-62 melanoma): 9.73 µM
- TGI (UACC-62 melanoma): 30.3 µM
- GI50 (TK-10 renal): 6.04 µM
- TGI (TK-10 renal): 32.6 µM
- GI50 (ACHN renal): 3.42 µM
- TGI (ACHN renal): 26.6 µM
- GI50 (RXF 393 renal): 4.89 µM
- TGI (RXF 393 renal): 45.2 µM
- GI50 (786-0 renal): 3.95 µM
- TGI (786-0 renal): 21 µM
- GI50 (MDA-MB-231 breast): 10.9 µM
- TGI (MDA-MB-231 breast): 44.5 µM
- GI50 (K-562 leukemia): 4.67 µM
- TGI (K-562 leukemia): > 100 µM
- GI50 (SK-MEL-28 melanoma): 2.99 µM
- TGI (SK-MEL-28 melanoma): 28.1 µM
- GI50 (PC-3 prostate): 3.5 µM
- TGI (PC-3 prostate): 15.6 µM
- GI50 (NCI-H522 lung): 1.47 µM
- TGI (NCI-H522 lung): 5.2 µM
- GI50 (CAKI-1 renal): 3.79 µM
- TGI (CAKI-1 renal): 22.2 µM
- GI50 (MOLT-4 leukemia): 3.3 µM
- TGI (MOLT-4 leukemia): 10.6 µM
- GI50 (HOP-62 NSCLC): 5.98 µM
- TGI (HOP-62 NSCLC): 20.1 µM
- GI50 (SF-539 CNS): 1.56 µM
- TGI (SF-539 CNS): 3.74 µM
- GI50 (U251 CNS): 3.35 µM
- TGI (U251 CNS): 32.2 µM
- GI50 (NCI-H23 lung): 8.77 µM
- TGI (NCI-H23 lung): 38.2 µM
- GI50 (COLO 205 colon): 3.7 µM
- TGI (COLO 205 colon): 16.8 µM
- GI50 (SK-MEL-2 melanoma): 2.12 µM
- TGI (SK-MEL-2 melanoma): 6.33 µM
- GI50 (SN12C renal): 14.6 µM
- TGI (SN12C renal): 47.2 µM
- GI50 (LOX IMVI melanoma): 2.36 µM
- TGI (LOX IMVI melanoma): > 100 µM
- GI50 (RPMI-8226 leukemia): 3.54 µM
- TGI (RPMI-8226 leukemia): 17.2 µM
- GI50 (NCI-H226 lung): 31.1 µM
- TGI (NCI-H226 lung): 75.4 µM
- GI50 (HCT-116 colon): 3.16 µM
- TGI (HCT-116 colon): 16 µM
- GI50 (EKVX NSCLC): 4.58 µM
- TGI (EKVX NSCLC): 24.1 µM
- GI50 (DU-145 prostate): 3.56 µM
- TGI (DU-145 prostate): 16.1 µM
- GI50 (A498 renal): 20.8 µM
- TGI (A498 renal): 39.6 µM
- GI50 (SK-MEL-5 melanoma): 3.87 µM
- TGI (SK-MEL-5 melanoma): 13.2 µM
- GI50 (OVCAR-8 ovarian): 3.38 µM
- TGI (OVCAR-8 ovarian): 14.5 µM
- GI50 (SNB-75 CNS): 5.7 µM
- TGI (SNB-75 CNS): 37 µM
